“And” between values parts separate entries of the source, which are not always exact repeats. Identical values can stand only once. Like-named read-outs stand apart in the source and are kept apart here. Square brackets hold non-standard residues; d marks the D form. * marks the point of attachment. dPhe(4-Cl) = N[C@H](Cc1ccc(Cl)cc1)C(=O)O; Heptanoyl = CCCCCCC(=O)*; Bn = c1ccc(C*)cc1
Experiments:
MC1-R = molecular target: T1, MC1-R; experiment: Competitive inhibition assay using [I125]-NDP-α-MSH, MC1-R membranes; assay type: binding, mouse; conditions: for Inhibition at 1 μM (NDP-α-MSH) MC1-R: 1 μM compound
T1 construct: other: 1 μM compound
Experimental: (§1) Competitive inhibition assay using [1125]-NDP-α-MSH. A competitive inhibition binding assay was conducted using membranes prepared from HEK-293 cells transfected to express hMC3-R, hMC4-R or hMC5-R, and from B-16 mouse melanoma cells (containing MC1-R) using 0.2 to 0.4 nM [I^125]-NDP-α-MSH (New England Nuclear) in 50 mM HEPES buffer containing 1 mM MgCl2, 2 mM CaCl2, and 5 mM KCl, at pH 7.2. In certain experiments, HEK-293 cells transfected to express hMC1-R were also employed. The assay tube also contained a chosen concentration of the test compound of this invention, typically a 1 μM concentration, for determining inhibition of the binding of [^1125]-NDP-α-MSH to its receptor. Non-specific binding was measured by inhibition of binding of [I^125]-NDP-α-MSH in the assay with the presence of 1 μM α-MSH.
(§2) The assay mixture was incubated for 90 minutes at room temperature, then filtered and the membranes washed three times with ice cold buffer. The filter was dried and counted in a gamma counter for remaining radioactivity bound to the membranes. 100% specific binding was defined as the difference in radioactivity (cpm) bound to cell membranes in the absence and presence of 1 μM α-MSH. The cpm obtained in presence of test compounds were normalized with respect to 100% specific binding to determine the percent inhibition of [125]-NDP-α-MSH binding. Each assay was conducted in triplicate and the actual mean values are described, with results less than 0% reported as 0%.

hMC3-R = molecular target: T2, hMC3-R; experiment: Competitive inhibition assay using [I125]-NDP-α-MSH, hMC3-R membranes; assay type: binding, human; conditions: read-out: Ki (nM) (NDP-α-MSH) MC3-R
T2 construct: expressed in transfected cells; host or cells: HEK-293
Experimental: as §1, §2

hMC4-R [1] = system: T3, hMC4-R; assay type: binding, human; conditions: for Inhibition at 1 μM (AgRP) MC4-R: 1 μM compound
T3 construct: expressed in transfected cells; host or cells: HEK-293
Experimental: Competitive binding assay using [I^125]-AgRP (83-132). Competitive binding studies using [I^125]-AgRP (83-132) were carried out on membranes isolated from cells expressing hMC4-R. The assay was performed in 96 well GF/B Millipore multiscreen filtration plates (MAFB NOB10) pre-coated with 0.5% bovine serum albumin (Fraction V). The assay mixture contained 25 mM HEPES buffer (pH 7.5) with 100 mM NaCl, 2 mM CaCl2, 2 mM MgCl2, 0.3 mM 1,10-phenanthroline, 0.5% bovine serum albumin, cell membranes, radioligand [I^125]-AgRP (83-132) (NEN), and increasing concentrations of compounds in a total volume of 200 μL. Binding was measured at radioligand concentrations of 0.2 nM. After incubating for 1 hour at 37° C., the reaction mixture was filtered and washed with an assay buffer containing 500 mM NaCl. The dried discs were punched out from the plate and counted on a gamma counter. Care was taken to limit the specific binding of the ligand to an amount not exceeding 10% of the counts added to the reaction mixture. Data were analyzed using the Prism Graph-Pad curve fitting software.

hMC4-R [2] = system: T3, hMC4-R; experiment: cAMP functional assay in HEK-293 cells expressing MC4-R (agonist, neutral antagonist/Schild); assay type: cell-based, human; conditions: for functional status at MC4-R: mostly at 1 μM; for intrinsic activity at MC4-R: NDP-α-MSH maximal stimulation = 1.0
Experimental: General method for EC50 determination in functional activity assay. Functional evaluation of compounds at melanocortin receptors was performed by measuring the accumulation of intracellular cAMP in HEK-293 cells expressing hMC3-R, hMC4-R or hMC5-R, and in B-16 mouse melanoma cells expressing MC1-R. Cells suspended in Earle's Balanced Salt Solution containing 10 mM HEPES (pH 7.5), 5 mM MgCl2, 1 mM glutamine, 0.1% albumin and 0.6 mM 3-isobutyl-1-methyl-xanthine, a phosphodiesterase inhibitor, were plated in 96 well plates at a density of 0.5×10^5 cells per well. Cells were incubated with the test compounds in the presence or absence of α-MSH for 1 hour at 37° C. cAMP levels in the cell lysates were measured using an EIA kit (Amersham). Data analysis and EC50 values were determined using nonlinear regression analysis with Prism Graph-Pad software.
Functional status. The agonist/antagonist status with respect to MC1-R, MC-3R, MC4-R and MC5-R of certain compounds of the invention was determined.
Assay for agonist. Evaluation of the molecules to elicit a functional response in HEK-293 cells expressing MC4-R was accomplished by measuring the accumulation of intracellular cAMP following treatment. Confluent HEK-293 cells expressing MC4-R were detached by enzyme free cell suspension buffer. Cells were suspended in Earle's Balanced Salt Solution containing 10 mM HEPES (pH 7.5), 1 mM MgCl2, 1 mM glutamine, 0.5% albumin and 0.3 mM 3-isobutyl-1-methyl-xanthine (IBMX), a phosphodiesterase inhibitor. The cells were plated in 96 well plates at a density of 0.5×10^5 cells per well and pre-incubated for 30 minutes. The cells were then challenged with the test compounds dissolved in DMSO at a concentration range of 0.05-5000 nM in a total assay volume of 200 μL for 1 hour at 37° C. The concentration of DMSO was always held at 1% in the assay mixture. NDP-α-MSH was used as the reference agonist. At the end of the incubation period the cells were disrupted by the addition of 50 μL of lysis buffer from a cAMP EIA kit (Amersham). Complete rupture of the cells was obtained by pipetting the cells multiple times. cAMP levels in the cell lysates were measured after appropriate dilution using the EIA kit (Amersham) method. Data analysis and EC50 values were determined by using nonlinear regression analysis with Prism Graph-Pad software. […] FIG. 1 illustrates typical results, showing the stimulation of cAMP using the compound of Example 11 in HEK-293/MC4-R cells with comparison to NDP-α-MSH.
Assay for Neutral Antagonist. Compounds with a high affinity for binding to MC4-R membranes but with less potency in terms of cAMP accumulation (EC50>1000 nM) and low response ratio (<0.1) were analyzed for their ability to antagonize the stimulatory effect of the agonist NDP-α-MSH. These studies were carried out in HEK-293 cells expressing MC4-R. Cells were incubated with the compounds in the presence of the agonist NDP-α-MSH and the extent of antagonism was measured by the decrease in intracellular cAMP concentrations. Screening the compounds for antagonist activity was performed at a single concentration of NDP-α-MSH (1.0 nM) over a compound concentration range of 0.5-5000 nM.
Experimental details were similar to the analysis for agonistic activity described above. Briefly, cells were pre-incubated for 30 minutes with the test compounds at concentrations between 0.5 nM and 5000 nM. The cells were then stimulated with NDP-α-MSH at a concentration of 1 nM for 1 hour. For Schild's analysis, the interactions were studied using at least 3 concentrations of the compounds, separated by a log unit, over a full range of the agonist (0.005-5000 nM). cAMP levels were measured in the cell lysates after appropriate dilution. Nonlinear regression analysis with Prism Graph-Pad software was used for Schild analysis and to obtain EC50 values. pA2 values were derived from the Schild plot of the data.

hMC4-R [3] = molecular target: T3, hMC4-R; experiment: Competitive inhibition assay using [I125]-NDP-α-MSH, hMC4-R membranes; assay type: binding, human; conditions: for attenuation of binding of α-MSH and AgRP to MC4-R: both ligands (NDP-α-MSH and AgRP), summary
Experimental: as §1, §2

hMC5-R = molecular target: T4, hMC5-R; experiment: Competitive inhibition assay using [I125]-NDP-α-MSH, hMC5-R membranes; assay type: binding, human; conditions: read-out: Ki (nM) (NDP-α-MSH) MC5-R
T4 construct: expressed in transfected cells; host or cells: HEK-293
Experimental: as §1, §2

[4] = MC4-R membranes, Table 1, read-out: Ki (nM) I125-AgRP
[5] = MC4-R membranes, Table 1, read-out: Ki (nM) I125-NPD-α-MSH
[6] = read-out: Ki (nM) (NDP-α-MSH) MC4-R
[7] = MC4-R, Table 1 in μM, read-out: EC50
[8] = cAMP assay, read-out: EC50 (nM) at MC4-R

Row | Compound | Ki (MC1-R) [nM] | Inhibition at 1 μM (NDP-α-MSH) MC1-R (MC1-R) [%] | Ki (hMC3-R) [nM] | Inhibition at 1 μM (AgRP) MC4-R (hMC4-R [1]) [%] | Ki (hMC4-R [1]; [4]) [nM] | Ki (hMC4-R [1]; read-out: Ki (nM) (AgRP) MC4-R) | functional status (pAg, Ag, Antag, Inactive) (hMC4-R [2]; MC4-R, Table 1) | EC50 (hMC4-R [2]; MC4-R, Table 1, read-out: EC50) [µM] | functional status at MC4-R (hMC4-R [2]; cAMP assay) | Ki (hMC4-R [3]; [5]) [nM] | attenuation of binding of α-MSH and AgRP to MC4-R (hMC4-R [3]) | Ki (hMC4-R [3]; [6]) [nM] | Ki (hMC5-R) [nM] | EC50 (hMC4-R [2]; [7]) [µM] | intrinsic activity at MC4-R (hMC4-R [2]) | EC50 (hMC4-R [2]; [8]) [µM] | EC50 (hMC4-R [2]; cAMP assay, printed in μm, read-out: EC50 at MC4-R) [µM]
1 | N=C(N)NCCC[C@H]1C(=O)N2C(CC[C@@H]2COc2ccc3ccccc3c2)N1C(=O)[C@@H](Cc1ccc(Cl)cc1Cl)NC(=O)[C@@H]1CC[C@H](c2ccccc2)N1 (stereo partly drawn) [Example 20, (2S,5R)-5-Phenyl-pyrrolidine-2-carboxylic acid {(R)-1-(2,4-dichloro-benzyl)-2-[(2S,5R)-2-(3-guanidino-propyl)-5-(naphthalen-2-yloxymethyl)-3-oxo-hexahydro-pyrrolo[1,2-a]imidazol-1-yl]-2-oxo-ethyl}-amide] | 1040 | 16 | 312 | 99 | 23 | 23 | Inactive | > 1 | inactive | – | – | – | – | – | – | – | –
2 | NCCCC[C@H]1C(=O)N(CCc2ccc3ccccc3c2)CCN1C(=O)[C@@H](Cc1ccc(Cl)cc1Cl)NC(=O)c1ccc(Oc2ccccc2)cc1 [Example 22, N—[(R)-2-[(S)-2-(4-Amino-butyl)-4-(2-naphthalen-2-yl-ethyl)-3-oxo-piperazin-1-yl]-1-(2,4-dichloro-benzyl)-2-oxo-ethyl]-4-phenoxy-benzamide] | – | – | – | 100 | 0.9 | 0.9 | Inactive | > 1 | inactive | – | – | – | – | – | – | – | –
3 | Heptanoyl-T(Bn)[dPhe(4-Cl)]RW-NH2 [Example 24] | – | – | 374 | 90 | 69 | 69 | pAg (“pAg” means partial agonist) | – | – | 21 | attenuate the binding of both α-MSH and AgRP to MC4-R | 21 | 292 | > 1 | 0.4 | > 1 | –
4 | NH2—(CH2)6—C(═O)-Ser(Bzl)-D-Phe(4-Cl)-Arg-Trp-Ala-NH2 [Example 16] | 142 | 60 | 35 | – | – | – | – | – | functionally inactive | – | – | – | – | > 1 | – | – | > 1
5 | 7′-amino-heptanoyl-Ser(Bzl)-D-Phe(4-Cl)-Arg-S-(−)-1-(1-naphthyl)ethylamide [Example 17] | – | – | 125 | 100 | 0.6 | 0.6 | pAg (“pAg” means partial agonist) | 0.017 | – | 7 | attenuate the binding of both α-MSH and AgRP to MC4-R | 7 | 313 | – | 0.3 | 0.017 | –
6 | NCCCC[C@H]1C(=O)N(CCc2ccc3ccccc3c2)CCN1C(=O)[C@@H](Cc1ccc(Cl)cc1Cl)NC(=O)[C@@H]1CC[C@H](c2ccccc2)N1 [Example 19, (2S,5R)-5-Phenyl-pyrrolidine-2-carboxylic acid [(R)-2-[(S)-2-(4-amino-butyl)-4-(2-naphthalen-2-yl-ethyl)-3-oxo-piperazin-1-yl]-1-(2,4-dichloro-benzyl)-2-oxo-ethyl]-amide] | 1370 | 0 | 855 | 95 | 63 | 63 | pAg (“pAg” means partial agonist) | 0.959 | – | – | attenuate the binding of both α-MSH and AgRP to MC4-R | – | – | – | 0.19 and 0.2 | 0.959 | –
7 | C[C@@H]1CN(C(=O)[C@H](N)Cc2ccc(Cl)cc2)[C@@H](CCCNC(=N)N)CN1CCc1ccc2ccccc2c1 [Example 29, N-{3-[1-[2(R)-Amino-3-(4-CHLORO-phenyl)-propionyl]-5(R)-methyl-4-(2-naphthalen-2-yl-ethyl)-piperazin-2(S)-yl]-propyl}-guanidine] | – | – | – | 97 | – | 15 | Ag | 0.252 | agonist (intrinsic activity of 0.7 (70%) or higher is classified as an agonist) | – | attenuate the binding of both α-MSH and AgRP to MC4-R | – | – | – | 0.8 | 0.252 | –
8 | Cc1cc(Cl)ccc1C[C@@H](N)C(=O)N1C[C@@H](C)N(CCc2ccc3ccccc3c2)C[C@@H]1CCCNC(=N)N [Example 27, N-{3-[1-[2(R)-Amino-3-(2-methyl, 4-chloro-phenyl)-propionyl]-5(R)-methyl-4-(2-naphthaen-2-yl-ethy)-piperazin-2(S)-yl]-propyl}-guanidine] | – | – | – | – | – | – | pAg (“pAg” means partial agonist) | 0.214 | partial agonist (intrinsic activity between 0.1 (10%) and 0.7 (70%) is classified as a partial agonist) | 29 | – | – | – | – | 0.3 | 0.214 | –

Reference: patent US20090076029A1 (Palatin Technologies, Inc., priority 2007, published 2009)
